Key:
Serine protease 1 = Serine protease 1 (Homo sapiens, UniProt P07477); assay: Compound was evaluated to inhibit the trypsin enzyme
Prothrombin = Prothrombin (Homo sapiens, UniProt P00734); assay: Compound was evaluated to inhibit the thrombin enzyme
[1] = Partition coefficient (logP); assay type: physicochemical; settings: octanol/water
Homo sapiens = species: Homo sapiens; assay: Compound was evaluated for its anticoagulant and antithrombotic activity by measuring the %protein binding in human plasma; assay type: functional, cell-free
[2] = Compound was evaluated for area under curve (total concentration) in dogs at a dose of 5 mpk perorally; assay type: ADME, organism-based, Canis lupus familiaris; settings: dog, in vivo, po, 5 mg/kg
[3] = Bioavailability as Cmax in dogs at 5 mg/kg oral dose; assay type: ADME, organism-based, Canis lupus familiaris; set-up: dose 5 mg/kg, route oral; settings: dog, in vivo
[4] = Compound was evaluated for its anticoagulant and antithrombotic activity by measuring the clotting parameter in human plasma; assay type: functional
Rattus norvegicus [5] = species: Rattus norvegicus; assay: Compound was evaluated for its anticoagulant and antithrombotic activity by measuring the clotting parameter in rat plasma; assay type: functional
[6] = Bioavailability as Vdss in dogs at 1 mg/kg intravenous dose; assay type: ADME, organism-based, Canis lupus familiaris; settings: dog, in vivo, read-out: Vdss
Rattus norvegicus [7] = species: Rattus norvegicus; assay: Compound was evaluated for its anticoagulant and antithrombotic activity by measuring the final plasma concentration in rat plasma; assay type: functional, organism-based
[8] = Compound was evaluated for Clearance in dogs at a dose of 1 mpk intravenously; assay type: ADME, organism-based, Canis lupus familiaris; settings: dog, in vivo, iv, 1 mg/kg; read-out: CI
Rattus norvegicus [9] = species: Rattus norvegicus; assay: Compound was evaluated for its anticoagulant and antithrombotic activity by measuring the %protein binding in rat plasma; assay type: functional, organism-based
Canis familiaris = species: Canis familiaris; assay: (§1) Compound was evaluated for half-life period in dogs at a dose of 5 mpk perorally; assay type: ADME, organism-based, Canis lupus familiaris; settings: dog, in vivo, po, 5 mg/kg
[10] = Compound was evaluated for area under curve (total concentration) in dogs at a dose of 1 mpk perorally; assay type: ADME, organism-based, Canis lupus familiaris; settings: dog, in vivo, po, 1 mg/kg
[11] = as §1; assay type: ADME, organism-based, Canis lupus familiaris; settings: dog, in vivo, po, 5 mg/kg

Sequence of Serine protease 1 (P07477 whole entry): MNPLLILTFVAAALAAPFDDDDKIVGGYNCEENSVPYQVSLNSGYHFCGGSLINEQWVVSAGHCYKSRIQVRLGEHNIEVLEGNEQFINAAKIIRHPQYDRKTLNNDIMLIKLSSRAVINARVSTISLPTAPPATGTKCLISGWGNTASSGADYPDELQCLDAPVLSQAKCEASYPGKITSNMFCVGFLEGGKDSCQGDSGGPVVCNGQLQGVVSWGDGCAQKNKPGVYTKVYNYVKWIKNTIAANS

SMILES	Ki (Serine protease 1) [nM]	Ki (Prothrombin) [nM]	logP [1]	PPB (Homo sapiens) [%]	AUC [2] [µM·h]	Cmax [3] [µM]	2x APTT [4] [µM]	2x APTT (Rattus norvegicus [5]) [µM]	Vd [6] [L/kg]	Plasma concentration (Rattus norvegicus [7]) [µM]	clearance [8] [mL/min/kg]	PPB (Rattus norvegicus [9]) [%]	T1/2 (Canis familiaris) [h]	AUC [10] [µM·h]	half-life [11] [h]
Cc1nc(N)ccc1CNC(=O)Cn1c(C(F)(F)F)ccc(NS(=O)(=O)Cc2ccccc2)c1=O	2500	12	–	–	–	–	–	–	–	–	–	–	–	–	–
Cc1nc(N)ccc1CNC(=O)Cn1c(C)ccc(NS(=O)(=O)Cc2ccccc2)c1=O [L-374087]	–	–	0.69	78	18.8	5.31	0.22	0.25	0.46	0.586	3.8	47	2.52	9.92	–
Cc1nc(N)ccc1CNC(=O)Cn1c(C2CC2)ccc(NS(=O)(=O)Cc2ccccc2)c1=O	1700	16	–	–	–	–	–	–	–	–	–	–	–	–	–
Cc1nc(N)ccc1CNC(=O)Cn1c(C)ccc(NS(=O)(=O)Cc2ccc(Cl)cc2)c1=O	2600	0.12	–	–	–	–	–	–	–	–	–	–	–	–	–
CCCc1ccc(NS(=O)(=O)Cc2ccccc2)c(=O)n1CC(=O)NCc1ccc(N)nc1C	1400	0.85	1.52	88	40.6	9.46	0.32	0.4	0.54	0.389	5.82	75	–	5.93	3.15
Cc1nc(N)ccc1CNC(=O)Cn1c(C2CC2)ccc(NS(=O)(=O)Cc2ccc(Cl)cc2)c1=O	1900	4	1.98	94	–	–	1.43	–	–	0.347	–	–	–	–	–
Cc1nc(N)ccc1CNC(=O)Cn1c(C(F)(F)F)ccc(NS(=O)(=O)Cc2ccc(Cl)cc2)c1=O	3400	2.6	–	–	–	–	–	–	–	–	–	–	–	–	–

From ChEMBL document CHEMBL1130870, “C6 modification of the pyridinone core of thrombin inhibitor L-374,087 as a means of enhancing its oral absorption” (Bioorg Med Chem Lett, 1998)
